“And” between values parts separate entries of the source, which are not always exact repeats. Equal values may be shown once.
How the values were obtained:
[1] = test system: adult subjects with moderate to severe AA; experiment: Phase III trial: Brigham Eyebrow Tool for Alopecia (BETA); format: in vivo, human
Experimental: The BETA is a clinician-rated scale developed by dermatologists at Brigham and Women's Hospital that assesses the total eyebrow hair present (Tkachenko, E, et al., Brigham Eyebrow Tool for Alopecia: A Reliable Assessment of Eyebrow Alopecia Areata, Journal of Investigative Dermatology Symposium Proceedings (2020) 20, S41-S44). The BETA is calculated based on hair density (range 0 to 3) and surface area of each individual eyebrow. The BETA score is the sum of the right and left eyebrow scores (range 0 (absent) to 6). An expert panel of certified raters at Brigham and Women's Hospital performed central readings based on photographs of the eyebrows provided by the study sites and determined a score for each subject with eyebrow involvement following each visit where an assessment of eyebrow hair presence was assessed. The BETA was performed at baseline, Week 12, and Week 24. If a subject was unable to attend an in-person clinic visit due to COVID-19, the BETA may not have been performed due to the inability to take photographs of the eyebrows.
A Phase III trial was conducted to assess the efficacy and safety of CTP-543 in adult subjects with moderate to severe AA. Approximately 440 adult male and female subjects 18 to 65 years of age, inclusive, with moderate to severe AA participated in the study. Subjects with definitive diagnosis of AA, and at least 50% hair loss, as defined by a SALT score ≥50, who met all of the inclusion criteria and none of the exclusion criteria participated in the study.
The Screening Period lasted up to 28 days prior to initiation of study drug. […] Randomization was stratified by scalp hair loss into 1 of the following 2 categories: 1) partial scalp hair loss (SALT ≥50 and <95), 2) complete or near complete scalp hair loss (SALT ≥95). […]

subjects with AA = experiment: Open-label extension (OLE) studies: SALT score over time; format: in vivo, human; settings: for percentage of subjects with a SALT score of ≤20: out to Week 52, pooled interim analysis
Experimental: The SALT score is calculated for a patient/subject by measuring the percentage of hair loss in each of the 4 areas of the scalp and adding the total to achieve a composite score (referred to herein as an absolute SALT score). Hair regrowth is reflected by a decrease in the SALT score. For example, no hair on the scalp would have a SALT score of 100 (i.e., an absolute SALT score) while complete hair regrowth would be a SALT score of 0 (i.e., an absolute SALT score).
Subjects completing 24 weeks of treatment with […] 8 mg twice daily in the Phase III trial were eligible to continue treatment in an open label extension trial. Following 52 additional weeks of treatment with […]™ 8 mg twice daily clinical response rates continued to increase with approximately 74% of the 80 subjects on 8 mg twice daily for 76 weeks achieving SALT ≤20.
The qualifying clinical trials including the following: 1. NCT03137381; 2. NCT03811912; 3. NCT03941548; 4. NCT04784533; 5. NCT04518995; and 6. NCT04797650 (all available a at https://clinicaltrials.gov).
The OLE Efficacy Population is defined as all subjects who received at least one dose of deuruxolitinib and had at least one post-baseline SALT assessment in OLE. The data analyses include subjects' data from the qualifying trial. Missing SALT scores were not imputed. The number of subjects decreases over time due to missing data, patient discontinuations, or subjects not yet at the later timepoints. Any SALT data after a qualifying dose change in the OLE was censored for all figures included here, except those showing the overall treatment sequence. A “qualifying dose change” referred to herein can be placebo in any qualifying trial to any dose of deuruxolitinib in the OLE (includes subjects who switched doses), or any dose of deuruxolitinib in a qualifying trial to any dose of deuruxolitinib in the OLE. Various analyses using SALT scores were conducted to best estimate the overall long-term effect of deuruxolitinib considering the issues with dose changes and decreasing patient numbers over time. “Any Dose” analysis tracks all active subjects over time pooled across the two doses. “As Observed” analysis censors subjects at the time of dose adjustment or study discontinuation. “LOCF” (last observation carried forward) analysis utilizes the last SALT score before dose change and carries it forward for all other timepoints up to 52 weeks.

[2H]C1([2H])C([C@@H](CC#N)n2cc(-c3ncnc4[nH]ccc34)cn2)C([2H])([2H])C([2H])([2H])C1([2H])[2H] [CTP-543, (R)-3-(4-(7H-pyrrolo[2,3-d]pyrimidin-4-yl)-1H-pyrazol-1-yl)-3-(cyclopentyl-2,2,3,3,4,4,5,5-d8) propanenitrile]
BETA score, LS mean change from baseline ([1]; Week 12, 8 mg BID): 0.8 | BETA score, LS mean change from baseline ([1]; Week 12, 12 mg BID): 0.8 | BETA score, LS mean change from baseline ([1]; Week 24, 8 mg BID): 1.1 | BETA score, LS mean change from baseline ([1]; Week 24, 12 mg BID): 1.4 | pooled mean SALT score (subjects with AA; 8 mg BID in OLE, placebo in the earlier studies): 30.4 | OLE responders who maintained treatment response in the OLE (subjects with AA; 8 mg BID in the OLE without a qualifying dose change, 282 of 283 responders): 99.6% | pooled mean SALT score (subjects with AA; 12 mg BID in OLE, placebo in the earlier studies): 43.0 | pooled mean SALT score (subjects with AA; 52 weeks, 8 mg BID in OLE, 8 mg of deuruxolitinib in the earlier studies): 25.6 | pooled mean SALT score (subjects with AA; 52 weeks, 8 mg BID or 12 mg BID in OLE, dosed with deuruxolitinib in the earlier studies): 31.7 | pooled mean SALT score (subjects with AA; 52 weeks, 8 mg BID or 12 mg BID in OLE, placebo in the earlier studies): 43.6 | pooled mean SALT score (subjects with AA; 52 weeks, 12 mg BID in OLE, 12 mg of deuruxolitinib in the earlier studies): 27.7 | subjects achieving SALT ≤20 (subjects with AA; 80 subjects on 8 mg twice daily for 76 weeks (24 weeks Phase III + 52 weeks open label extension)): approximately 74% | proportion of participants achieving SALT ≤20 (subjects with AA; OLE at Week 68, any dose (including switched doses), listed as deuruxolitinib): 62.6% and 63% | proportion of participants achieving SALT ≤20 (FIG. 13A) (subjects with AA; Week 68, 8 mg BID): > 80% | patients achieving SALT 10 (subjects with AA; Week 68, 8 mg BID/8 mg BID group, As observed, 179/256): 69.9% | patients achieving SALT 10 (subjects with AA; Week 68, 8 mg BID/8 mg BID group, LOCF, 213/521): 40.9% | proportion of participants achieving SALT ≤20 (subjects with AA; Week 68, 8 mg BID, As Observed (AO), listed as deuruxolitinib): 76.6% and 77% | proportion of participants achieving SALT ≤20 (subjects with AA; Week 68, 8 mg BID, LOCF): 48.8% | proportion of participants achieving SALT ≤20 (subjects with AA; Week 68, 12 mg BID, As Observed (AO), listed as deuruxolitinib): 66.7% and 67% | proportion of participants achieving SALT ≤20 (subjects with AA; Week 68, 12 mg BID, LOCF): 60.9% | patients achieving SALT 10 (subjects with AA; Week 68, placebo/8 mg BID group, As observed, 39/59): 66.1% | patients achieving SALT 10 (subjects with AA; Week 68, placebo/8 mg BID group, LOCF, 41/122): 33.6% | proportion of participants achieving SALT ≤20 (subjects with AA; established in the Qualifying Studies, any dose): 34.9% | Mean SALT score (subjects with AA; out to 68 weeks, any dose in Qualifying Study and OLE, n=836, baseline 86.8 (n=984)): 26.8 | percentage of subjects with a SALT score of ≤20 (subjects with AA; 8 mg twice per day in the OLE, listed as deuruxolitinib): 63.6% and 64% | percentage of subjects with a SALT score of ≤20 (subjects with AA; 12 mg twice per day in the OLE, listed as deuruxolitinib): 62.1% and 62% | percentage of subjects with a SALT score of ≤20 (subjects with AA; any dose in the OLE (including switched doses), listed as deuruxolitinib): 57.1% and 57%

Source: US20250114367A1, “METHOD OF TREATING HAIR LOSS DISORDERS” (Sun Pharmaceutical Industries, Inc., priority 2023, published 2025)
